Experimental data reported in patent US20140288052A1, “SUBSTITUTED BICYCLIC AZA-HETEROCYCLES AND ANALOGUES AS SIRTUIN MODULATORS” (GlaxoSmithKline, LLC, priority 2011, published 2014).

Legend:
SIRT1 [1] = biological target: T1, SIRT1 (Homo sapiens, UniProt Q96EB6); assay: Trp mass spectrometry assay of SIRT1 deacetylase activation; type: biochemical; details: Trp peptide substrate; for TRP EC1.5 (μM): concentration that results in 150% activation of SIRT1; for TRP % Fold Act: percent maximum fold activation relative to control (100%)
T1 sequence (Q96EB6 1-747): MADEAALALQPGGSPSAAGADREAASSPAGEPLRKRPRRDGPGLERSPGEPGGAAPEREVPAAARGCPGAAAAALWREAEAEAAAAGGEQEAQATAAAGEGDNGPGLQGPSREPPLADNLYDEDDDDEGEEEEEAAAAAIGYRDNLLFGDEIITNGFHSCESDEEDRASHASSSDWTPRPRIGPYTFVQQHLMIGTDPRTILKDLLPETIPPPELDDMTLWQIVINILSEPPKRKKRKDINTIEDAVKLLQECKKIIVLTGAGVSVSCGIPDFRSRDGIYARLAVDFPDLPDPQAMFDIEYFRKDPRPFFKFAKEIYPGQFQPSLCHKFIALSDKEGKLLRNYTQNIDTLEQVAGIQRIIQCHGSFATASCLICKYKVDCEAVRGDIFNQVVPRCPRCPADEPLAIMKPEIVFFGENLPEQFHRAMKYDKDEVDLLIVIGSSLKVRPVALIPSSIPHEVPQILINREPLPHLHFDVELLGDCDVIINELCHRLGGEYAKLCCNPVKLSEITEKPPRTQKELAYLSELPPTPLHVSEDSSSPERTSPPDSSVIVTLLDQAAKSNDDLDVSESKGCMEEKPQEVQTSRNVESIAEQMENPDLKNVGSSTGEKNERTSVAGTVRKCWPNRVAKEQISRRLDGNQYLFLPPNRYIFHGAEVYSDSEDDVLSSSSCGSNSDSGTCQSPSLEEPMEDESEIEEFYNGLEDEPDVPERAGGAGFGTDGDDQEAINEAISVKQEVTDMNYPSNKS
From the text: (§1) Mass spectrometry based assays were used to identify modulators of SIRT1 activity. The TAMRA based assay utilized a peptide having 20 amino acid residues as follows: Ac-EE-K(biotin)-GQSTSSHSK(Ac)NleSTEG-K(5TMR)-EE-NH2 (SEQ ID NO: 1), wherein K(Ac) is an acetylated lysine residue and Nle is a norleucine. The peptide was labeled with the fluorophore 5TMR (excitation 540 nm/emission 580 nm) at the C-terminus. The sequence of the peptide substrate was based on p53 with several modifications. In addition, the methionine residue naturally present in the sequence was replaced with the norleucine because the methionine may be susceptible to oxidation during synthesis and purification. The Trp based assay utilized a peptide having an amino acid residues as follows: Ac-R-H-K-K(Ac)-W-NH2 (SEQ ID NO: 2).
The Trp mass spectrometry assay was conducted as follows. 0.5 μM peptide substrate and 120 μM βNAD^+ were incubated with 10 nM SIRT1 for 25 minutes at 25° C. in a reaction buffer (50 mM HEPES pH 7.5, […], 1 mM DTT, 0.05% BSA). The SIRT1 protein was obtained by cloning the SirT1 gene into a T7-promoter containing vector, which was then expressed in BL21(DE3) bacterial cells and purified as described in further detail below. Test compound was added at varying concentrations to this reaction mixture and the resulting reactions were monitored. After the 25 minute incubation with SIRT1, 10 μL of 10% formic acid was added to stop the reaction. The resulting reactions were sealed and frozen for later mass spec analysis. The relative SIRT1 activity was then determined by measuring the amount of O-acetyl-ADP-ribose (OAADPR) formed (or, alternatively, the amount of deacetylated Trp peptide generated) by the NAD-dependent sirtuin deacetylation reaction in the presence of varying concentrations of the test compound versus control reactions lacking the test compound. The degree to which the test agent activated deacetylation by SIRT1 was expressed as EC1.5 (i.e., the concentration of compound required to increase SIRT1 activity by 50% over the control lacking test compound), and Percent Maximum Activation (i.e., the maximum activity relative to control (100%) obtained for the test compound).
(§2) A control for inhibition of sirtuin activity was conducted by adding 1 μL of 500 mM nicotinamide as a negative control at the start of the reaction (e.g., permits determination of maximum sirtuin inhibition). A control for activation of sirtuin activity was conducted using 10 nM of sirtuin protein, with 1 μL of DMSO in place of compound, to determine the amount of deacetylation of the substrate at a given time point within the linear range of the assay. This time point was the same as that used for test compounds and, within the linear range, the endpoint represents a change in velocity. For the above assay, SIRT1 protein was expressed and purified as follows. The SirT1 gene was cloned into a T7-promoter containing vector and transformed into BL21(DE3). The protein was expressed by induction with 1 mM IPTG as an N-terminal His-tag fusion protein at 18° C. overnight and harvested at 30,000×g. Cells were lysed with lysozyme in lysis buffer (50 mM Tris-HCl, 2 mM Tris[2-carboxyethyl] phosphine (TCEP), 10 μM ZnCl2, 200 mM NaCl) and further treated with sonication for 10 min for complete lysis. The protein was purified over a Ni-NTA column (Amersham) and fractions containing pure protein were pooled, concentrated and run over a sizing column (Sephadex S200 26/60 global). The peak containing soluble protein was collected and run on an Ion-exchange column (MonoQ). Gradient elution (200 mM-500 mM NaCl) yielded pure protein. This protein was concentrated and dialyzed against dialysis buffer (20 mM Tris-HCl, 2 mM TCEP) overnight. The protein was aliquoted and frozen at −80° C. until further use.
Sirtuin-modulating compounds of Formula (I) that activated SIRT1 were identified using the assay described above and are shown below in Table 1. […]

SIRT1 [2] = biological target: T1, SIRT1; assay: TAMRA based mass spectrometry assay of SIRT1 deacetylase activation; type: biochemical; details: TAMRA peptide substrate; for TAMRA EC1.5 (μM): concentration that results in 150% activation of SIRT1; for TAMRA % Fold Act: percent maximum fold activation relative to control (100%)
From the text: as §1
The TAMRA based mass spectrometry assay was conducted as follows: 0.5 μM peptide substrate and 120 μM βNAD^+ was incubated with 10 nM SIRT1 for 25 minutes at 25° C. in a reaction buffer (50 mM Tris-acetate pH 8, 137 mM NaCl, 2.7 mM KCl, 1 mM MgCl2, 5 mM DTT, 0.05% BSA). The SIRT1 protein was obtained by cloning the SirT1 gene into a T7-promoter containing vector, which was then transformed and expressed in BL21(DE3) bacterial cells. Test compound was added at varying concentrations to this reaction mixture and the resulting reactions were monitored. After the 25 minute incubation with SIRT1, 10 μL of 10% formic acid was added to stop the reaction. The resulting reactions were sealed and frozen for later mass spec analysis. Determination of the amount of deacetylated substrate peptide formed (or, alternatively, the amount of O-acetyl-ADP-ribose (OAADPR) generated) by the sirtuin-mediated NAD-dependent deacetylation reaction allowed for the precise measurement of relative SIRT1 activity in the presence of varying concentrations of the test compound versus control reactions lacking the test compound.
as §2
Sirtuin-modulating compounds of Formula (I) that activated SIRT1 were identified using the assay described above and are shown below in Table 1. The EC1.5 values represent the concentration of test compounds that result in 150% activation of SIRT1. The EC1.5 values for the activating compounds of Formula (I) are represented by A (EC1.5<1 μM), B (EC1.5 1−25 μM), C (EC1.5>25 μM). […]

Row | SMILES | TRP EC1.5 (μM) (SIRT1 [1]) | TRP % Fold Act (SIRT1 [1]) | TAMRA EC1.5 (μM) (SIRT1 [2]) | TAMRA % Fold Act (SIRT1 [2])
1 | O=C(Nc1nccs1)c1ccnc2cc(-c3cccc(C(F)(F)F)c3)nn12 [Compound 87] | C (EC1.5>25 μM) | B (Fold Activation<350%) | C (EC1.5>25 μM) | B (Fold Activation<350%)
2 | O=C(Nc1ccnc2cc(-c3cccc(C(F)(F)F)c3)nn12)c1nccs1 [Compound 95] | C (EC1.5>25 μM) | B (Fold Activation<350%) | C (EC1.5>25 μM) | B (Fold Activation<350%)
3 | O=C(Nc1ccccn1)c1ccnc2cc(-c3cccc(C(F)(F)F)c3)nn12 [Compound 84] | C (EC1.5>25 μM) | B (Fold Activation<350%) | – | –
4 | O=C(Nc1ccnc2cc(-c3ccccc3C(F)(F)F)nn12)c1cnccn1 [Compound 61] | C (EC1.5>25 μM) | B (Fold Activation<350%) | A (EC1.5<1 μM) | A (Fold activation≧350%)
5 | Cc1cccc(C(=O)Nc2ccnc3cc(-c4ccccc4C(F)(F)F)nn23)n1 [Compound 109] | C (EC1.5>25 μM) | B (Fold Activation<350%) | A (EC1.5<1 μM) | A (Fold activation≧350%)
6 | O=C(Nc1ccncc1)c1cc(N2CCOCC2)nn2cc(-c3cccc(C(F)(F)F)c3)nc12 [Compound 51] | – | – | C (EC1.5>25 μM) | B (Fold Activation<350%)
7 | O=C(Nc1cccc(N2CCOCC2)n1)c1ccnn2cc(-c3cccc(Cl)c3)nc12 [Compound 24] | – | – | C (EC1.5>25 μM) | B (Fold Activation<350%)
8 | Cc1cnc(NC(=O)c2cc(N3CCOCC3)nn3cc(-c4ccccc4Cl)nc23)s1 [Compound 35] | C (EC1.5>25 μM) | B (Fold Activation<350%) | – | –
9 | O=C(Nc1cccnc1)c1cc(N2CCOCC2)nn2cc(-c3cccc(C(F)(F)F)c3)nc12 [Compound 50] | – | – | C (EC1.5>25 μM) | B (Fold Activation<350%)
10 | O=C(Nc1nccs1)c1ccnn2cc(-c3ccccc3Cl)nc12 [Compound 3] | – | – | C (EC1.5>25 μM) | B (Fold Activation<350%)
11 | O=C(Nc1ccnc(N2CCOCC2)c1)c1ccnn2cc(-c3cccc(C(F)(F)F)c3)nc12 [Compound 19] | – | – | C (EC1.5>25 μM) | B (Fold Activation<350%)
12 | O=C(Nc1cccc(N2CCOCC2)n1)c1ccnn2cc(-c3cccc(F)c3)nc12 [Compound 11] | – | – | C (EC1.5>25 μM) | B (Fold Activation<350%)
